In ChEMBL document CHEMBL1201862, “PubChem BioAssay data set” (2004):
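These data come from cells grown in 96-well plates and exposed to compound for 48 hours at five concentrations. Abbreviation: GI50, concentration required for 50% inhibition of growth.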 The source made the active and inactive calls. Rule as the data show it: active = GI50 up to about 1.1 µM and inactive = higher.

Assays:
Test in all cases: NCI anticancer screen, dose series, 48 h
ACHN = system: ACHN
HCC 2998 = system: HCC 2998
HOP-62 = system: HOP-62
IGROV-1 = system: IGROV-1
LOX IMVI = system: LOX IMVI
M14 = system: M14
MOLT-4 = system: MOLT-4
Malme-3M = system: Malme-3M
NCI-H226 = system: NCI-H226
NCI-H460 = system: NCI-H460
OVCAR-3 = system: OVCAR-3
RXF 393 = system: RXF 393
SF-539 = system: SF-539
SK-OV-3 = system: SK-OV-3
SN12C = system: SN12C
SNB-75 = system: SNB-75
TK-10 = system: TK-10
U-251 = system: U-251
UO-31 = system: UO-31

Measured: GI50

Cc1cc(S(=O)(=O)Nc2nc(N)n[nH]2)c(Cl)cc1Cl
inactive: ACHN > 10 µM | HCC 2998 > 10 µM | HOP-62 > 10 µM | IGROV-1 > 10 µM | LOX IMVI > 10 µM | M14 > 10 µM | MOLT-4 > 10 µM | Malme-3M > 10 µM | NCI-H226 > 10 µM | NCI-H460 > 10 µM | OVCAR-3 > 10 µM | RXF 393 > 10 µM | SF-539 > 10 µM | SK-OV-3 > 10 µM | SN12C > 10 µM | SNB-75 > 10 µM | TK-10 > 10 µM | U-251 > 10 µM

COc1ccc(-c2c3c(n(C4OC(COC(C)=O)C(OC(C)=O)C(OC(C)=O)C4OC(C)=O)c(=S)c2C#N)CCCC3)cc1 (centres undefined)
inactive: ACHN 55.6 µM | HCC 2998 > 100 µM | HOP-62 89.3 µM | IGROV-1 28.8 µM | LOX IMVI > 100 µM | M14 > 100 µM | MOLT-4 27.6 µM | Malme-3M 82.6 µM | NCI-H226 > 100 µM | NCI-H460 39.8 µM | OVCAR-3 19.6 µM | RXF 393 33.7 µM | SF-539 69.5 µM | SK-OV-3 > 100 µM | SN12C > 100 µM | SNB-75 16.4 µM | TK-10 > 100 µM | U-251 45 µM | UO-31 64.7 µM

O=C(OC1=CCN(Br)C1=O)C1=C(O)C(=O)N(Br)C1
inactive: ACHN 33.9 µM | HCC 2998 53.8 µM | HOP-62 24 µM | IGROV-1 39.1 µM | LOX IMVI 20.9 µM | M14 51.8 µM | MOLT-4 22.8 µM | Malme-3M 55 µM | NCI-H226 54 µM | NCI-H460 38.3 µM | OVCAR-3 20.8 µM | RXF 393 20 µM | SK-OV-3 21.5 µM | SN12C 17.3 µM | SNB-75 24.3 µM | TK-10 33 µM | U-251 22.5 µM | UO-31 45.4 µM

CC(=O)NC1(C)CCC(C(C)(C)NC(C)=O)CC1 (centres undefined)
inactive: ACHN > 100 µM | HCC 2998 > 100 µM | HOP-62 > 100 µM | IGROV-1 > 100 µM | LOX IMVI > 100 µM | M14 > 100 µM | MOLT-4 > 100 µM | Malme-3M > 100 µM | NCI-H226 > 100 µM | NCI-H460 > 100 µM | OVCAR-3 > 100 µM | RXF 393 > 100 µM | SF-539 > 100 µM | SK-OV-3 > 100 µM | SN12C > 100 µM | SNB-75 > 100 µM | TK-10 > 100 µM | U-251 > 100 µM | UO-31 > 100 µM
